Measurements reported in publication PMC9959130, “Effects of Side Chain and Peptide Bond Modifications on the Targeting Properties of Stabilized Minigastrin Analogs” (Pharmaceuticals, 2023).
Where a SMILES comes first, the peptide text is derived from it. [ ]: non-standard residue; d: D form. The star is where a group is joined. DOTA = O=C(O)CN1CCN(CC(=O)O)CCN(CC(=O)*)CCN(CC(=O)O)CC1; 1Nal = N[C@@H](Cc1cccc2ccccc12)C(=O)O; NMeNle = CCCC[C@H](NC)C(=O)O

What was measured:
Complex stability in PBS = type: physicochemical; conditions: 1000 pmol/mL in PBS, room temperature, 4 h after incubation, n = 1
Method: (§1) In vitro stability studies were performed in human serum (n = 2). The radiolabeled peptides (1000 pmol/mL) were incubated at 37 °C and a sample of 100 μL was taken at 1, 4, and 24 h after incubation. After the precipitation of proteins with ACN at 1:1.5 (v/v), centrifugation (14,000 rpm, 2 min, centrifuge 5424, Eppendorf AG, Germany) and dilution with water at 1:1 (v/v), an aliquot of 100 μL of this solution was analyzed by HPLC. Radioligand breakdown was monitored and the percentage of intact radiopeptide was calculated using Chromeleon Dionex Software (Version 7.2.9.11323). Additionally, the radiolabeled peptides (1000 pmol/mL) were incubated in PBS (n = 1) at room temperature to confirm the complex stability as a control.

human CCK2R [1] = target: T1, human CCK2R (Homo sapiens, UniProt P32239); test: Calcium mobilization assay (fluo-4 AM) on A431-CCK2R cells; type: cell-based; conditions: normalized to 10^−6 M pentagastrin, mean ± SEM of at least three independent experiments in triplicates
T1 construct: expressed in transfected cells; host or cells: A431 human epidermoid carcinoma cells, stably transfected (A431-CCK2R); originally provided by Dr. Luigi Aloj
T1 sequence (P32239 1-447): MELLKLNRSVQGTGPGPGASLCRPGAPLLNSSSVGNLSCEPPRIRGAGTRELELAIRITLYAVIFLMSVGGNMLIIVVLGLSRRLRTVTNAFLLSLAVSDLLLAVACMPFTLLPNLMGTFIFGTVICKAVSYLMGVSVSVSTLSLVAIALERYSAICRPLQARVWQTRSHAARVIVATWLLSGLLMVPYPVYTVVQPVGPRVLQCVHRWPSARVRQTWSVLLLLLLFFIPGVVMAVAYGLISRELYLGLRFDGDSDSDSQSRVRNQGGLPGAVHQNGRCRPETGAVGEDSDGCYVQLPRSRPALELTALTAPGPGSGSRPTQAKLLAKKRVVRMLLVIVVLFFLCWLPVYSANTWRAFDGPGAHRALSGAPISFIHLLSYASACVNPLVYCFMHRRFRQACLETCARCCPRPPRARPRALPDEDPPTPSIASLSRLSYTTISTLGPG
Text: (§2) A431 human epidermoid carcinoma cells overexpressing human CCK2R through stable transfection (A431-CCK2R) and the same cell line transfected with the empty vector (A431-mock) were used for cell assays. The cells are constantly available in our laboratory and were originally provided by Dr. Luigi Aloj. All cell culture media and reagents were obtained from Invitrogen Corporation (Lofer, Austria) or Sigma-Aldrich (Darmstadt, Germany). Dulbecco’s modified Eagle’s medium (DMEM) supplemented with 10% (v/v) fetal bovine serum and 1% of 100x penicillin−streptomycin−glutamine was used for cell culture. The cells were passaged three times per week using a 10x 2.5% trypsin-EDTA solution in a 1:2–1:3 ratio.
Analog-induced receptor activation was evaluated by a calcium mobilization assay using the calcium-sensitive dye fluo-4 AM (ThermoFisher Scientific, Montigny-Le-Bretonneux, France), as previously described. Briefly, A431-CCK2R cells were seeded (60,000/well) in flat clear bottom black 96-well plates (Corning, Bagneaux-sur-Loing, France) coated with poly-L-ornithine (100 µg/mL, 1 h, 37 °C) (Sigma Aldrich, Saint Quentin Fallavier, France). Cytosolic Ca^2+ variations were measured before and after application of 50 µL of graded concentrations of the investigated peptides in the vicinity of the cells, and the effects on Ca^2+ mobilization were measured. Data were background corrected and normalized for the amplitudes caused by the medium alone (0%, no self-effect) or 10^−6 M pentagastrin (100%, maximal Ca^2+ mobilization response). Prism 4.0 software was used to calculate the EC50 values and the results were expressed as mean ± SEM for at least three independent experiments performed in triplicates.

human CCK2R [2] = target: T1, human CCK2R; test: Competitive binding assay against [125I][3-iodo-Tyr12,Leu15]gastrin-I on A431-CCK2R cells; conditions: unlabeled peptide, 1 h at RT, radioligand [125I][3-iodo-Tyr12,Leu15]gastrin-I, mean ± sd of three independent experiments in triplicates
Text: as §2
Receptor affinity studies of the DOTA-conjugates for the CCK2R was competitively evaluated against [^125I][3-iodo-Tyr^12,Leu^15]gastrin-I. The binding assays were performed in 96-well filter plates (MultiScreenHTS-FB, Merck Group, Darmstadt, Germany) as previously described. A431-CCK2R cells (200,000–400,000/well) were incubated for 1 h at RT with the peptides (concentration range of 0.01–1000 nM) and [^125I][3-iodo-Tyr^12,Leu^15]gastrin-I (~25,000 cpm). The incubation was arrested by filtering the medium by vacuum and rinsing twice rapidly with ice-cold binding assay buffer (10 mM TRIS/139 mM NaCl, pH 7.3). The filters were removed from the plate, transferred into 4.5 mL tubes and measured in the γ-counter. Data were normalized from 0 to 100 for graphical representation of exemplary binding curves. Origin software (Microcal Origin 6.1, Northampton, MA, USA) was used to calculate the half maximal inhibitory concentration (IC50) values by nonlinear regression and expressed as mean ± sd for three independent experiments performed in triplicates. An additional cell uptake study at 2 h after incubation was performed for DOTA-[(N-Me)1Nal^8]MGS5 radiolabeled with gallium-68 and lutetium-177 (see Figure S4 of the Supplementary Materials).

[3] = Distribution coefficient (LogD) in octanol/PBS; type: physicochemical; conditions: radiolabeled peptide (111In-labeled where the label names no radiometal); shake-flask octanol/PBS, 100 pmol/mL, 15 min shaking at 1500 rpm, γ-counter; mean ± SD, n = 8
Method: The distribution coefficient (LogD) in octanol/PBS was determined by mixing 0.5 mL of the radiolabeled DOTA peptides diluted in PBS (100 pmol/mL) and 0.5 mL octanol in a 1.5 mL microcentrifuge tube (n = 8). After shaking for 15 min (MS3 Basic, IKA, Staufen, Germany) at 1500 rpm and a waiting time of 10 min to ensure appropriate separation of the two phases, 100 µL aliquots of each phase were pipetted into 4.5 mL tubes. The tubes were measured using a γ-counter (2480 Wizard2 3″, PerkinElmer Life Sciences and Analytical Instruments, formerly Wallac Oy, Turku, Finland) and the LogD value was determined using following equation: LogD=Log(cpmoctanol phase/cpmPBS phase)

[4] = In vitro stability in human serum (intact radiopeptide by radio-HPLC); type: in vitro ADME; conditions: radiolabeled peptide (111In where no radiometal named), fresh human serum, 37 °C, 1000 pmol/mL, 24 h after incubation, n = 2
Method: as §1

[5] = Binding to serum proteins (incubation in human serum, Sephadex G-50 size exclusion chromatography); type: in vitro ADME; conditions: radiolabeled peptide (111In where no radiometal named), 37 °C, 500 pmol/mL, 24 h after incubation, Sephadex G-50, γ-counter, n = 2
Method: Protein binding was determined by incubation of the radiolabeled peptides in human serum at 37 °C (500 pmol/mL, n = 2). For the time points of 1, 4, and 24 h after incubation, samples of 25 µL were subjected to Sephadex G-50 size exclusion chromatography (GE Healthcare Illustra, Little Chalfont, UK). The column and the eluate were measured using the γ-counter and the percentage of protein binding was calculated.

Row | Compound | Stability of the DOTA-complex in PBS (Complex stability in PBS) [%] | EC50 (human CCK2R [1]) [nM] | IC50 (human CCK2R [2]) [nM] | LogD [3] | Intact Radiopeptide in Human Serum (%) [4] [%] | Binding to Serum Proteins (%) [5] [%]
1 | CCCC[C@@H](C(=O)N[C@@H](CC(=O)O)C(=O)N(C)[C@@H](Cc1cccc2ccccc12)C(N)=O)N(C)C(=O)[C@H](Cc1c[nH]c2ccccc12)NC(=O)CNC(=O)[C@H](Cc1ccc(O)cc1)NC(=O)[C@H](C)NC(=O)[C@@H](CCC(=O)O)NC(=O)CN1CCN(CC(=O)O)CCN(CC(=O)O)CCN(CC(=O)O)CC1 [[^177Lu]Lu-DOTA-[(N-Me)1Nal^8]MGS5] [metal not drawn] | 99 |  |  |  |  | 
2 | CCCC[C@@H](C(=O)N[C@@H](CC(=O)O)C(=O)N[C@@H](Cc1ccccc1)C(N)=O)N(C)C(=O)[C@H](Cc1c[nH]c2ccccc12)NC(=O)CNC(=O)[C@H](Cc1ccc(O)cc1)NC(=O)[C@H](C)NC(=O)[C@@H](CCC(=O)O)NC(=O)CN1CCN(CC(=O)O)CCN(CC(=O)O)CCN(CC(=O)O)CC1 [DOTA-[Phe^8]MGS5] ({DOTA}-[dE]AYGW[NMeNle]DF-NH2) [listing 1 of 2 here] |  | 6.3 ± 3.6 | 0.7 ± 0.1 |  |  | 
3 | CCCC[C@@H](C(=O)N[C@@H](CC(=O)O)C(=O)N[C@@H](Cc1ccc2ccccc2c1)C(N)=O)N(C)C(=O)[C@H](Cc1c[nH]c2ccccc12)NC(=O)CNC(=O)[C@H](Cc1ccc(O)cc1)NC(=O)[C@H](C)NC(=O)[C@@H](CCC(=O)O)NC(=O)CN1CCN(CC(=O)O)CCN(CC(=O)O)CCN(CC(=O)O)CC1 [DOTA-[2Nal^8]MGS5] [listing 1 of 2 here] |  | 12.8 ± 2.4 | 1.7 ± 0.1 |  |  | 
4 | CCCC[C@@H](C(=O)N[C@@H](CC(=O)O)C(=O)N[C@@H](Cc1ccccc1)C(N)=O)N(C)C(=O)[C@H](Cc1c[nH]c2ccccc12)NC(=O)CNC(=O)[C@H](Cc1ccc(O)cc1)NC(=O)[C@H](C)NC(=O)[C@@H](CCC(=O)O)NC(=O)CN1CCN(CC(=O)O)CCN(CC(=O)O)CCN(CC(=O)O)CC1 [DOTA-[Phe^8]MGS5] ({DOTA}-[dE]AYGW[NMeNle]DF-NH2) [listing 2 of 2 here] |  |  |  | −3.2 ± 0.1 | 54.0 ± 0.8 | 20.2 ± 1.6
5 | CCCC[C@@H](C(=O)N[C@@H](CC(=O)O)C(=O)N[C@@H](Cc1cccc2ccccc12)C(N)=O)N(C)C(=O)[C@H](Cc1c[nH]c2ccccc12)NC(=O)CNC(=O)[C@H](Cc1ccc(O)cc1)NC(=O)[C@H](C)NC(=O)[C@@H](CCCCN)NC(=O)CN1CCN(CC(=O)O)CCN(CC(=O)O)CCN(CC(=O)O)CC1 [DOTA-[DLys^1]MGS5] ({DOTA}-[dK]AYGW[NMeNle]D[1Nal]-NH2) [listing 1 of 2 here] |  | 43.5 ± 14.1 | 0.9 ± 0.8 |  |  | 
6 | CCCC[C@@H](C(=O)N[C@@H](CC(=O)O)C(=O)N(C)[C@@H](Cc1cccc2ccccc12)C(N)=O)N(C)C(=O)[C@H](Cc1c[nH]c2ccccc12)NC(=O)CNC(=O)[C@H](Cc1ccc(O)cc1)NC(=O)[C@H](C)NC(=O)[C@@H](CCC(=O)O)NC(=O)CN1CCN(CC(=O)O)CCN(CC(=O)O)CCN(CC(=O)O)CC1 [DOTA-[(N-Me)1Nal^8]MGS5] [listing 1 of 2 here] |  | 63.4 ± 19.9 | 2.7 ± 0.3 |  |  | 
7 | CCCC[C@@H](C(=O)N[C@@H](CC(=O)O)C(=O)N[C@@H](Cc1cccc2ccccc12)C(=O)NC)N(C)C(=O)[C@H](Cc1c[nH]c2ccccc12)NC(=O)CNC(=O)[C@H](Cc1ccc(O)cc1)NC(=O)[C@H](C)NC(=O)[C@@H](CCC(=O)O)NC(=O)CN1CCN(CC(=O)O)CCN(CC(=O)O)CCN(CC(=O)O)CC1 [DOTA-MGS5[NHCH3]] [listing 1 of 2 here] |  | 41 ± 14.7 | 13.2 ± 1.5 |  |  | 
8 | CCCC[C@@H](C(=O)N[C@@H](CC(=O)O)C(=O)N[C@@H](Cc1cccc2ccccc12)C(N)=O)N(C)C(=O)[C@H](Cc1c[nH]c2ccccc12)NC(=O)CNC(=O)[C@H](Cc1ccc(O)cc1)NC(=O)[C@H](C)NC(=O)[C@@H](CCCCN)NC(=O)CN1CCN(CC(=O)O)CCN(CC(=O)O)CCN(CC(=O)O)CC1 [DOTA-[DLys^1]MGS5] ({DOTA}-[dK]AYGW[NMeNle]D[1Nal]-NH2) [listing 2 of 2 here] |  |  |  | −1.3 ± 0.1 | 98.1 ± 1.1 | 27.8 ± 0.4
9 | CCCC[C@@H](C(=O)N[C@@H](CC(=O)O)C(=O)N[C@@H](Cc1ccc2ccccc2c1)C(N)=O)N(C)C(=O)[C@H](Cc1c[nH]c2ccccc12)NC(=O)CNC(=O)[C@H](Cc1ccc(O)cc1)NC(=O)[C@H](C)NC(=O)[C@@H](CCC(=O)O)NC(=O)CN1CCN(CC(=O)O)CCN(CC(=O)O)CCN(CC(=O)O)CC1 [DOTA-[2Nal^8]MGS5] [listing 2 of 2 here] |  |  |  | −1.7 ± 0.2 | 92.0 ± 1.2 | 34.6 ± 0.3
10 | CCCC[C@@H](C(=O)N[C@@H](CC(=O)O)C(=O)N[C@@H](Cc1cccc2ccccc12)C(=O)NC)N(C)C(=O)[C@H](Cc1c[nH]c2ccccc12)NC(=O)CNC(=O)[C@H](Cc1ccc(O)cc1)NC(=O)[C@H](C)NC(=O)[C@@H](CCC(=O)O)NC(=O)CN1CCN(CC(=O)O)CCN(CC(=O)O)CCN(CC(=O)O)CC1 [DOTA-MGS5[NHCH3]] [listing 2 of 2 here] |  |  |  | −2.3 ± 0.2 | 98.1 ± 0.4 | 40.9 ± 3.1
11 | CCCC[C@@H](C(=O)N[C@@H](CC(=O)O)C(=O)N(C)[C@@H](Cc1cccc2ccccc12)C(N)=O)N(C)C(=O)[C@H](Cc1c[nH]c2ccccc12)NC(=O)CNC(=O)[C@H](Cc1ccc(O)cc1)NC(=O)[C@H](C)NC(=O)[C@@H](CCC(=O)O)NC(=O)CN1CCN(CC(=O)O)CCN(CC(=O)O)CCN(CC(=O)O)CC1 [DOTA-[(N-Me)1Nal^8]MGS5] [listing 2 of 2 here] |  |  |  | −2.4 ± 0.3 | 99.6 ± 0.1 | 39.8 ± 4.2
